Test results as given in patent publication US20090306373A1, “4,7-DIHYDROTHIENO[2,3-B]PYRIDINE COMPOUNDS AND PHARMACEUTICAL COMPOSITIONS” (priority 2005, published 2009).

Test system: alpha-MyHC
Assay: alpha-MyHC cytoblot in neonatal rat ventricular myocytes (NRVM)
Type: cell-based
Details: Rattus norvegicus, Ventricular myocyte, Table 1, 72 hours, concentration giving 50% of maximum response
Description: In vitro activity of each compound is measured using the alpha-MyHC cytoblot process. Briefly, neonatal rat ventricular myocytes (NRVM) at 120,000 cells/ml in HyQ DME/High modified culture media supplemented with 10% charcoal/dextran treated FBS, 0.1% Nutridoma-SP, 1:100 MEM non-essential amino acids, 1:50 MEM amino acids solution w/o L-Gln, 1 mM sodium pyruvate and 1:100 P/S/G, are plated on gelatin coated sterile 384-well plates (Costar 3712) at 6,000 cells per well. Cells are incubated overnight at 37° C. in 5% CO2 100% humidity. Following overnight growth the media is changed to HyQ DME/High modified culture media supplemented with 0.3% Nutridoma-SP, 1:100 MEM non-essential amino acids, 1:50 MEM amino acids solution w/o L-Gln, 1 mM sodium pyruvate and 1:100 P/S/G. Cells are then dosed with serial dilutions of each compound in DMSO. Each concentration in the dose range is dosed in quadruplicate. Dosing is done in such a way so that the final DMSO concentration was 0.44%. Compound dilutions are 3-fold with the final top concentration of 10 uM. […] Following dosing, the cells are incubated for 72 hours at 37° C. in 5% CO2 100% humidity and then processed with the cytoblot method. Briefly, cell media is aspirated and cell monolayers washed with PBS and fixed with 100% methanol for 30 minutes. Fixed cells are then blocked with PBS, 0.05% Tween-20, 1% BSA, for 1 hour. Following blocking, cells are incubated with primary alpha-MyHC-specific antibody (1:30 dilution of BA-G5 hybridoma conditioned media, ATCC HB276) for 1 hour. Following incubation with the primary antibody, cells are washed with PBS, 0.05% Tween-20, 1% BSA and incubated with secondary antibody (1:1000 dilution, goat-anti-mouse HRP, Southern Biotech, 1031-05) for 1 hour. Following incubation with the secondary antibody, wells are washed and incubated in SuperSignal, West Dura HRP-luminescence substrate for 30 seconds under shaking at room temperature. Luminescence is measured using a Packard Fusion plate reader. […] RLU values are converted into percent fraction of low control and dose responses are fitted to a sigmoidal 4-parameter equation (XLFit, IDBS) where the EC50 and Max Plateau values were extracted. […] Max Plateau is the […] maximum value determined by the dose response fit.

In order of rising EC50:
1. CCC(=O)C1=C(CC)Nc2sc(C(=O)c3ccc(F)c(F)c3)c(N)c2C1c1ccccc1F (centres unmarked) [Compound 108, 1-[3-amino-2-(3,4 difluoro-benzoyl)-6-ethyl-4-(2 fluoro-phenyl)-4,7 dihydro-thieno[2,3-b]pyridine-5-yl]propan-1-one]  4.02 nM
2. CCC(=O)C1=C(CC)Nc2sc(C(=O)c3ccc(Cl)c(Cl)c3)c(N)c2C1c1ccncc1 (centres unmarked) [Compound 104, 1-[3-amino-2-(3,4 dichloro-benzoyl)-6-ethyl-4 pyridin-4-yl-4,7 dihydro-thieno[2,3-b]pyridin-5-yl]-propan-1-one]  24.8 nM

Same assay, conditions: Rattus norvegicus, Ventricular myocyte, Table 2, 72 hours, concentration giving 50% of maximum response

`CCOC(=O)C1=C(CC)Nc2sc(C(=O)c3cccnc3)c(N)c2C1c1ccncc1F` (centres unmarked) [Compound 174, 3-amino-6-ethyl-4-(3 fluoro-pyridin-4-yl)-2-(pyridine-3-carbonyl)-4,7 dihydro-thieno[2,3-b]pyridine-5-carboxylic acid ethyl ester] showed an EC50 of 21.9 nM.

Same assay, conditions: Table 1, 72 hours, concentration giving 50% of maximum response

In the case of `CCC(=O)C1=C(CC)Nc2sc(C(=O)c3ccc(Cl)c(Cl)c3)c(N)c2C1c1ccccc1F` (racemic) [Compound 39, 1-[3-amino-2-(3,4-dichloro-benzoyl)-6-ethyl-4-(2-fluoro-phenyl)-4,7-dihydro-thieno[2,3b]pyridin-5-yl]-propan-1-one], the EC50 is reported as 17.1 nM.

Same assay, conditions: Table 1, 72 hours, fitted maximum, percent fraction of low control (vehicle), in %

In order of rising “Max Plateau” value:
1. CC(=O)C1=C(C)Nc2sc(C(=O)c3ccc(Cl)c(Cl)c3)c(N)c2C1c1ccc(C(C)(C)C)cc1 (centres unmarked) [Compound 32]  100.00 ± 0.00
2. Nc1c(C(=O)c2ccccc2)sc2c1C(c1ccccc1)C(C(=O)c1ccccc1)=C(c1ccccc1)N2 (centres unmarked) [Compound 30]  100.00 ± 0.00
3. CC(=O)C1=C(C)Nc2sc(C(=O)c3ccc(Cl)c(Cl)c3)c(N)c2C1c1ccc(Cl)cc1Cl (centres unmarked) [Compound 52]  122.73 ± 20.55
4. CC(=O)C1=C(C)Nc2sc(C(=O)c3ccc(C)c(C)c3)c(N)c2C1c1ccccc1 (centres unmarked) [Compound 8]  172.29 ± 9.66
5. CC(=O)C1=C(C)Nc2sc(C(=O)c3ccc(Cl)c(Cl)c3)c(N)c2C1c1ccc(Br)cc1 (centres unmarked) [Compound 22]  174.35 ± 23.39
6. CCC(=O)C1=C(CC)Nc2sc(C(=O)c3cc(C(F)(F)F)cc(C(F)(F)F)c3)c(N)c2C1c1ccccc1 (centres unmarked) [Compound 73]  205.27 ± 38.78
7. CC(=O)C1=C(C)Nc2sc(C(=O)c3ccc(Cl)c(Cl)c3)c(N)c2C1c1ccccc1 (centres unmarked) [Compound 2]  207.74 ± 23.00
8. CC(=O)C1=C(C)Nc2sc(C(=O)c3ccncc3)c(N)c2C1c1ccccc1 (centres unmarked) [Compound 10]  210.00 ± 36.06
9. COc1ccccc1C1C(C(C)=O)=C(C)Nc2sc(C(=O)c3ccccc3)c(N)c21 (centres unmarked) [Compound 18]  215.25 ± 44.08
10. CCC(=O)C1=C(CC)Nc2sc(C(=O)c3ccc(F)c(F)c3)c(N)c2C1c1ccccc1 (centres unmarked) [Compound 72]  223.99 ± 24.51
11. CCC(=O)C1=C(CC)Nc2sc(C(=O)c3ccc(Cl)cc3)c(N)c2C1c1ccccc1 (centres unmarked) [Compound 80]  226.13 ± 5.25
12. CCC(=O)C1=C(CC)Nc2sc(C(=O)c3ccc(Cl)c(Cl)c3)c(N)c2C1c1cccnc1 (centres unmarked) [Compound 75]  226.71 ± 40.80
13. CC(=O)C1=C(C)Nc2sc(C(=O)c3ccc(Cl)c(Cl)c3)c(N)c2C1c1cc(F)cc(F)c1 (centres unmarked) [Compound 55]  229.93 ± 37.33
14. CCC(=O)C1=C(CC)Nc2sc(C(=O)c3ccc(Cl)c(C)c3)c(N)c2C1c1ccccc1 (centres unmarked) [Compound 89]  230.09 ± 19.81
15. CCC(=O)C1=C(CC)Nc2sc(C(=O)c3ccc(F)c(F)c3)c(N)c2C1c1cc(F)cc(F)c1 (centres unmarked) [Compound 101]  230.49 ± 17.13
16. CC(=O)C1=C(C)Nc2sc(C(=O)c3cccc(F)c3)c(N)c2C1c1ccccc1 (centres unmarked) [Compound 61]  230.65 ± 55.61
17. CCC(=O)C1=C(CC)Nc2sc(C(=O)c3ccc(Cl)c(Cl)c3)c(N)c2C1c1cccc(F)c1 (centres unmarked) [Compound 84]  242.72 ± 19.34
18. CCC(=O)C1=C(CC)Nc2sc(C(=O)c3ccccc3Br)c(N)c2C1c1ccccc1 (centres unmarked) [Compound 106]  244.21 ± 29.53
19. CCC(=O)C1=C(CC)Nc2sc(C(=O)c3ccccc3Cl)c(N)c2C1c1ccccc1 (centres unmarked) [Compound 82]  245.96 ± 30.73
20. CCC(=O)C1=C(CC)Nc2sc(C(=O)c3cccc([N+](=O)[O-])c3)c(N)c2C1c1ccccc1F (centres unmarked) [Compound 97]  247.24 ± 38.88
21. CCC(=O)C1=C(CC)Nc2sc(C(=O)c3cccnc3)c(N)c2C1c1ccnc(F)c1 (centres unmarked) [Compound 103]  254.65 ± 31.26
22. CCC(=O)C1=C(CC)Nc2sc(C(=O)c3cccc([N+](=O)[O-])c3)c(N)c2C1c1ccccc1 (centres unmarked) [Compound 96]  254.87 ± 72.67
23. CCC(=O)C1=C(CC)Nc2sc(C(=O)c3ccc(Cl)c(Cl)c3)c(N)c2C1c1ccnc(F)c1 (centres unmarked) [Compound 98]  255.02 ± 32.01
24. CCC(=O)C1=C(CC)Nc2sc(C(=O)c3ccc(Cl)c(Cl)c3)c(N)c2C1c1ccccc1 (centres unmarked) [Compound 36]  256.56 ± 24.93
25. CCC(=O)C1=C(CC)Nc2sc(C(=O)c3ccc(Cl)c(Cl)c3)c(N)c2C1c1ccccc1Cl (centres unmarked) [Compound 53]  259.43 ± 26.30
26. CC(=O)C1=C(C)Nc2sc(C(=O)c3ccccc3)c(N)c2C1c1ccccc1F (centres unmarked) [Compound 24]  260.35 ± 43.53
27. CCC(=O)C1=C(CC)Nc2sc(C(=O)c3ccccc3)c(N)c2C1c1ccccc1F (centres unmarked) [Compound 78]  269.77 ± 35.30
28. CCC(=O)C1=C(CC)Nc2sc(C(=O)c3ccc(F)c(F)c3)c(N)c2C1c1ccnc(F)c1 (centres unmarked) [Compound 102]  269.88 ± 36.90
29. CCC(=O)C1=C(CC)Nc2sc(C(=O)c3ccc(Cl)c(Cl)c3)c(N)c2C1c1ccccc1F (racemic) [Compound 39, 1-[3-amino-2-(3,4-dichloro-benzoyl)-6-ethyl-4-(2-fluoro-phenyl)-4,7-dihydro-thieno[2,3b]pyridin-5-yl]-propan-1-one]  272.61 ± 37.32
30. CCC(=O)C1=C(CC)Nc2sc(C(=O)c3ccc(Cl)c(Cl)c3)c(N)c2C1c1ccc(O)cc1Cl (centres unmarked) [Compound 83]  274.88 ± 44.56
31. CC(=O)C1=C(C)Nc2sc(C(=O)c3ccc(Cl)c(Cl)c3)c(N)c2C1c1ccc(O)cc1 (centres unmarked) [Compound 23]  277.53 ± 33.46
32. COC(=O)c1cccc(C(=O)c2sc3c(c2N)C(c2ccccc2)C(C(C)=O)=C(C)N3)c1 (centres unmarked) [Compound 62]  279.31 ± 67.94
33. CC(=O)C1=C(C)Nc2sc(C(=O)c3cccnc3)c(N)c2C1c1ccccc1 (centres unmarked) [Compound 5]  286.43 ± 42.04
34. CCC(=O)C1=C(CC)Nc2sc(C(=O)c3ccc(Cl)c(Cl)c3)c(N)c2C1c1ccccc1Cl (centres unmarked) [Compound 38]  288.93 ± 52.81

Same assay, conditions: Table 2, 72 hours, fitted maximum, percent fraction of low control (vehicle), in %

In order of rising “Max Plateau” value:
1. COC(=O)C1=C(C(C)C)Nc2sc(C(=O)c3ccc(Cl)c(Cl)c3)c(N)c2C1c1cccc([N+](=O)[O-])c1 (centres unmarked) [Compound 134]  98.33
2. COCC1=C(C(=O)OC)C(c2ccccc2)c2c(sc(C(=O)c3ccc(Cl)c(Cl)c3)c2N)N1 (centres unmarked) [Compound 120]  140.79
3. COC(=O)C1=C(C2CC2)Nc2sc(C(=O)c3ccc(Cl)c(Cl)c3)c(N)c2C1c1ccccc1 (centres unmarked) [Compound 133]  180.24
4. CCC1=C(C(=O)OC(C)CC)C(c2ccccc2F)c2c(sc(C(=O)c3ccc(Cl)c(Cl)c3)c2N)N1 (single isomer, unassigned) [Compound 162]  183.22
5. COC(=O)C1=C(C2CC2)Nc2sc(C(=O)c3cccc(Cl)c3)c(N)c2C1c1ccnc(F)c1 (racemic) [Compound 176]  218.25
6. CCC1=C(C(=O)OC)C(c2ccccc2F)c2c(sc(C(=O)c3ccc(Cl)c(C)c3)c2N)N1 (centres unmarked) [Compound 150]  228.28
7. CCC1=C(C(=O)OC)C(c2ccc(F)cc2F)c2c(sc(C(=O)c3ccc(Cl)c(Cl)c3)c2N)N1 (centres unmarked) [Compound 153]  234.66
8. CCC1=C(C(=O)OC)C(c2cccc(Cl)c2F)c2c(sc(C(=O)c3cccc([N+](=O)[O-])c3)c2N)N1 (centres unmarked) [Compound 156]  243.78
9. CCC1=C(C(=O)OC)C(c2ccccc2F)c2c(sc(C(=O)c3cccc(Cl)c3)c2N)N1 (centres unmarked) [Compound 167]  255.95
10. CCOC(=O)C1=C(C)Nc2sc(C(=O)c3ccc(Cl)c(Cl)c3)c(N)c2C1c1ccccc1 (centres unmarked) [Compound 113]  256.38
11. CCOC(=O)C1=C(CC)Nc2sc(C(=O)c3ccc(F)c(F)c3)c(N)c2C1c1ccncc1F (centres unmarked) [Compound 173]  257.43
12. CCOC(=O)C1=C(CC)Nc2sc(C(=O)c3ccc(Cl)c(Cl)c3)c(N)c2C1c1ccncc1Cl (centres unmarked) [Compound 169]  261.04
13. CCC1=C(C(=O)OC)C(c2c(F)cccc2F)c2c(sc(C(=O)c3cccc([N+](=O)[O-])c3)c2N)N1 (centres unmarked) [Compound 141]  261.69
14. CCOC(=O)C1=C(CC)Nc2sc(C(=O)c3cc(F)cc(F)c3)c(N)c2C1c1ccccc1 (centres unmarked) [Compound 151]  273.61
15. CCC1=C(C(=O)OC)C(c2ccccc2)c2c(sc(C(=O)c3cccc([N+](=O)[O-])c3)c2N)N1 (centres unmarked) [Compound 139]  281.08
